The results in this text go back to US20200223889A1, “Bicyclic Compounds Capable of Binding to Melanocortin 4 Receptor” (Novo Nordisk A/S, priority 2017, published 2020).

The structures appear in SMILES notation. Like-named read-outs stand apart in the source and are kept apart here. Starred links: 1 amine or outer side, 2 acyl side, 3 side chain; linkers in the order of their positions; H or OH if unused. Positions of bridges follow the written chain, without caps; N, C: chain ends. Non-standard residues stand in square brackets, D forms with d. Residues, ends and D or L forms follow the SMILES beside them. 2Nal = N[C@@H](Cc1ccc2ccccc2c1)C(=O)O; Pen = CC(C)(S)[C@H](N)C(=O)O; d(hCys) = N[C@H](CCS)C(=O)O; Thz = O=C(O)[C@@H]1CSCN1; X1 = C(CN[*:2])CS[*:1]

The target of one assay is T1, human MC1R (Homo sapiens, UniProt Q01726).
T1 construct: expressed in transfected cells
The assay can be described thus: Functional cAMP assay (CisBio HTRF) in BHK cells expressing human MC1R. The conditions noted are these: BHK cells expressing human MC1R; '>' = highest dose used with no response; read-out: MC1R cAMP EC50. The format is cell-based. As for the experimental part: In order to assess the potency of the compounds on human MC1R and human MC4R cAMP signalling was measured.
cAMP induction was measured by c-AMPdynamic2 assay, HTRF 62AM4PEC system from CisBio for the human MC1R and human MC4R according to the protocol provided by the vendor. BHK cells expressing the human MC1 or MC4 receptor were generated by stable transfection with expression vectors encoding the cDNA of either MC1R or MC4R.
In details; 25 μl compound—or standard solution were added in the respective wells. Compound was reconstituted in buffer (DMEM w/o phenol red, 10 mM
Hepes, lx Glutamine, 0.1% OV-albumin1, 1 mM IBMX) and serially diluted starting at 2 μM, 10-fold seven times. Dilutions were carried out in the same aforementioned buffer to the desired working concentration ranges (2× higher than the final concentration). 25 μl cell solution was then added and allowed to incubate for 30 min while lightly shaking, at 25° C. […] The provided components for the assay were reconstituted according to the CisBio assay protocol “3.1 supplied reagents and preparation procedure” in MilliQ purification system H2O and diluted 1:20 in lysis buffer. 25 μl cAMP-d2 and 25 μl Cryptate conjugate were added to all wells.
Plates were centrifuged at 1500 rpm for 30 sec and incubated for 1 h, lightly shaking, at 25° C. in a hotel stacker. The plates were read on Mithras LB 940 provided by Berthold Technologies The data were analysed by non-linear regression analysis of binding curves, using the Windows™ program GraphPad™ Prism (GraphPad Software, USA).
The latter is used when no full curve can be obtained in the concentration ranges indicated above.
In general terms: Changes in cAMP serve as a functional read-out for many G protein-coupled receptors.

In assay [1] the target is T2, human MC4R (Homo sapiens, UniProt P32245).
T2 construct: expressed in transfected cells
The assay is described as follows: Functional cAMP assay (CisBio HTRF) in BHK cells expressing human MC4R. The format is cell-based. Conditions: for MC1R/MC4R cAMP EC50 ratio: MC1R cAMP EC50 divided by MC4R cAMP EC50. Summed up: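 Compound working solutions, 10-fold dilutions from 2 μM at twice final strength, in buffer containing 1 mM IBMX, were incubated 30 min at 25 °C with BHK cells stably carrying human MC4R or MC1R. Accumulated cAMP was then detected by competitive HTRF after 1 h at 25 °C and fitted by non-linear regression.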

Assay [2] concerns the target T2, human MC4R. The assay can be described thus: 125NDP-α-MSH competitive binding to membranes of BHK cells expressing human MC4 receptor (filtration assay). The gist of the method: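 Displacement of ^125NDP-α-MSH (apx. […] final) was measured by filtration after 2 h at 25 °C, using diluted membranes of stably transfected BHK cells in pH 7.0 HEPES buffer. Compounds spanned 1 μM to 0.001 nM; binding curves were analysed by non-linear regression.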

[3] abbreviates: BHK cells expressing human MC4R, '>' = highest dose used with no response, read-out: MC4R cAMP EC50.
[4] abbreviates: human MC4R, BHK cell membranes, 125NDP-α-MSH radioligand, read-out: MC4R binding Ki.

A word on the EC50: it is the concentration that produces a half-maximal response. One may read the Ki as the dissociation constant of the complex between target and ligand, obtained from inhibition or displacement.

T2 sequence (P32245 whole entry): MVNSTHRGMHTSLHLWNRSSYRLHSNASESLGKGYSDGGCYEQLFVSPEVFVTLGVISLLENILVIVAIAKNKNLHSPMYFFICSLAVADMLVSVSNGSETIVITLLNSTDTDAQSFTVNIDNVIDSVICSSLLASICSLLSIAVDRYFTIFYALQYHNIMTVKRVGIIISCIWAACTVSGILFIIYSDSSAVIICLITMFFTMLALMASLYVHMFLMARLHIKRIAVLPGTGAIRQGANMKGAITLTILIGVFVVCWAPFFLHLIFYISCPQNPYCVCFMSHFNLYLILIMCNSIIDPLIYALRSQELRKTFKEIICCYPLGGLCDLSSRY
T1 sequence (Q01726 whole entry): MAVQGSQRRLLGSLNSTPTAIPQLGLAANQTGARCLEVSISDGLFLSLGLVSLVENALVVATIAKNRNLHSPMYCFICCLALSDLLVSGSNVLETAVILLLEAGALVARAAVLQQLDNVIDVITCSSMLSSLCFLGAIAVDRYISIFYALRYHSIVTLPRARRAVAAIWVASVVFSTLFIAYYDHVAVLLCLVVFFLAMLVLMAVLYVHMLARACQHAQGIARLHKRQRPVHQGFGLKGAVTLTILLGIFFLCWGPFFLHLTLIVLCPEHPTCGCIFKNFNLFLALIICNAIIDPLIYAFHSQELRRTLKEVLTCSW

For `C[C@@H]1NC(=O)[C@@H]2CSSC[C@H](NC(=O)[C@H](Cc3c[nH]c4ccccc34)NC(=O)[C@@H]3C[C@@H](NC(=N)N)CN3C(=O)[C@@H](Cc3ccccc3)NC(=O)[C@H](Cc3c[nH]cn3)NC1=O)C(=O)N[C@@H](C)C(=O)N[C@@H](Cc1c[nH]cn1)C(=O)N[C@H](Cc1ccccc1)C(=O)N1C[C@H](NC(=N)N)C[C@H]1C(=O)N[C@@H](Cc1c[nH]c3ccccc13)C(=O)N2` [Chem. 28, c[c[Cys-Ala-His-D-Phe-4trans- GuaPro-Trp-Cys]-Ala-His-D-Phe- 4trans-GuaPro-Trp]], the EC50 on human MC1R is over 100 nM.
Consider `C[C@@H]1NC(=O)[C@@H]2CSSC[C@H](NC(=O)[C@H](Cc3c[nH]c4ccccc34)NC(=O)[C@H](CCC(N)=O)NC(=O)[C@@H](Cc3ccccc3)NC(=O)[C@H](Cc3c[nH]cn3)NC1=O)C(=O)N[C@@H](C)C(=O)N[C@@H](CCCCN)C(=O)N[C@H](CCCCN)C(=O)N[C@@H](CCCCN)C(=O)N[C@@H](Cc1c[nH]c3ccccc13)C(=O)N2` [Chem. 57, c[c[Cys-Ala-His-D-Phe-Gln-Trp-Cys]- Ala-Lys-D-Lys-Lys-Trp]] (cyclo(AH[dF]QWCAK[dK]KWC); disulfide 6-12), for which the EC50 on human MC4R [1] (setting [3]) was found to be 0.19 nM. Further, at human MC4R [1], the “MC1R/MC4R cAMP EC50 ratio” value was determined as 55. In addition, on human MC4R [2] (setting [4]), the Ki amounted to 0.21 nM.
The matching figures for `C[C@@H]1NC(=O)[C@@H]2CSSC[C@H](NC(=O)[C@H](Cc3c[nH]c4ccccc34)NC(=O)[C@H](CCCCN)NC(=O)[C@H](CCCCN)NC(=O)[C@H](CCCCN)NC1=O)C(=O)N[C@H](CCCCN)C(=O)N[C@@H](Cc1c[nH]cn1)C(=O)N[C@H](Cc1ccccc1)C(=O)N[C@@H](Cc1c[nH]cn1)C(=O)N[C@@H](Cc1c[nH]c3ccccc13)C(=O)N2` [Chem. 84, c[c[Cys-D-Lys-His-D-Phe-His-Trp- Cys]-Ala-Lys-Lys-Lys-Trp]] (cyclo(AKKKWC[dK]H[dF]HWC); disulfide 6-12): 0.59 nM, 74 and 0.19 nM.
Turning to `C[C@@H]1NC(=O)[C@@H]2CSSC[C@H](NC(=O)[C@H](CCCNC(=N)N)NC(=O)[C@H](CCCCN)NC(=O)[C@H](CCCCN)NC(=O)[C@H](CCCCN)NC1=O)C(=O)N1CSC[C@H]1C(=O)N[C@@H](Cc1c[nH]cn1)C(=O)N[C@H](Cc1ccccc1)C(=O)N[C@@H](Cc1c[nH]cn1)C(=O)N[C@@H](Cc1c[nH]c3ccccc13)C(=O)N2` [Chem. 100, c[c[Cys-THAZ-His-D-Phe-His-Trp- Cys]-Ala-Lys-Lys-Lys-Arg]] (cyclo(AKKKRC[Thz]H[dF]HWC); disulfide 6-12), at human MC4R [1], the midpoint of the response, the EC50, lay at 0.02 nM and the “MC1R/MC4R cAMP EC50 ratio” value stood at 925. On human MC4R [2], this compound gave a Ki of 0.04 nM.
Regarding `C[C@@H]1NC(=O)[C@H](C)NC(=O)[C@H](Cc2c[nH]c3ccccc23)NC(=O)[C@H](CCCNC(=N)N)NC(=O)[C@@H](Cc2ccccc2)NC(=O)[C@H](Cc2c[nH]cn2)NC(=O)[C@H](C)NC(=O)[C@H](C)NC(=O)[C@H](Cc2c[nH]c3ccccc23)NC(=O)[C@H](CCCNC(=N)N)NC(=O)[C@@H](Cc2ccccc2)NC(=O)[C@H](Cc2c[nH]cn2)NC1=O` [Chem. 7, c[Ala-Ala-His-D-Phe-Arg-Trp-Ala-Ala- His-D-Phe-Arg-Trp]] (cyclo(AAH[dF]RWAAH[dF]RW)), at human MC4R [1] (setting [3]), the EC50 came to 0.06 nM. The “MC1R/MC4R cAMP EC50 ratio” value on human MC4R [1] is listed as 76. Besides, the Ki at human MC4R [2] (setting [4]) worked out at 0.47 nM.
As for `NCCCC[C@@H]1NC(=O)[C@H](CCCCN)NC(=O)[C@H](CCCCN)NC(=O)[C@@H]2CSSC[C@H](NC(=O)[C@H](Cc3c[nH]c4ccccc34)NC(=O)[C@H](CCCCN)NC1=O)C(=O)N[C@@H](CCCCN)C(=O)N[C@@H](Cc1c[nH]cn1)C(=O)N[C@H](Cc1ccccc1)C(=O)N[C@@H](Cc1c[nH]cn1)C(=O)N[C@@H](Cc1c[nH]c3ccccc13)C(=O)N2` [Chem. 77, c[c[Cys-Lys-His-D-Phe-His-Trp-Cys]- Lys-Lys-Lys-Lys-Trp]] (cyclo(CKH[dF]HWCKKKKW); disulfide 1-7), at human MC4R [1], the “MC1R/MC4R cAMP EC50 ratio” value stood at 108. Further, on human MC4R [2] (setting [4]), the Ki came to 0.72 nM.
Regarding `C[C@@H]1NC(=O)[C@@H]2CSSC(C)(C)[C@H](NC(=O)[C@H](Cc3c[nH]c4ccccc34)NC(=O)[C@H](CCCNC(=N)N)NC(=O)[C@@H](Cc3ccccc3)NC(=O)[C@H](Cc3c[nH]cn3)NC1=O)C(=O)N[C@@H](C)C(=O)N[C@@H](Cc1c[nH]cn1)C(=O)N[C@H](Cc1ccccc1)C(=O)N[C@@H](CCCNC(=N)N)C(=O)N[C@@H](Cc1c[nH]c3ccccc13)C(=O)N2` [Chem. 63, c[c[Pen-Ala-His-D-Phe-Arg-Trp-Cys]- Ala-His-D-Phe-Arg-Trp]], on human MC4R [1] (setting [3]), the EC50 is 0.02 nM. In addition, the “MC1R/MC4R cAMP EC50 ratio” value on human MC4R [1] is on record as 42. Further, the Ki at human MC4R [2] (setting [4]) worked out at 0.08 nM.
The matching figures for `C[C@@H]1NC(=O)[C@@H]2CSSC(C)(C)[C@H](NC(=O)[C@H](CCCNC(=N)N)NC(=O)[C@H](CCCCN)NC(=O)[C@H](CCCCN)NC(=O)[C@H](CCCCN)NC1=O)C(=O)N1CCC[C@H]1C(=O)N[C@@H](Cc1c[nH]cn1)C(=O)N[C@H](Cc1ccccc1)C(=O)N[C@@H](Cc1c[nH]cn1)C(=O)N[C@@H](Cc1c[nH]c3ccccc13)C(=O)N2` [Chem. 92, c[c[Pen-Pro-His-D-Phe-His-Trp-Cys]- Ala-Lys-Lys-Lys-Arg]] (cyclo(AKKKR[Pen]PH[dF]HWC); disulfide 6-12): 0.13 nM, 362 and 0.04 nM.
The matching figures for `N=C(N)NCCC[C@@H]1NC(=O)[C@@H](Cc2ccccc2)NC(=O)[C@H](Cc2c[nH]cn2)NC(=O)CNC(=O)[C@@H]2CSSC[C@H](NC(=O)[C@H](Cc3c[nH]c4ccccc34)NC1=O)C(=O)NCC(=O)N[C@@H](Cc1c[nH]cn1)C(=O)N[C@H](Cc1ccccc1)C(=O)N[C@@H](CCCNC(=N)N)C(=O)N[C@@H](Cc1c[nH]c3ccccc13)C(=O)N2` [Chem. 2, c[c[Cys-Gly-His-D-Phe-Arg-Trp-Cys]- Gly-His-D-Phe-Arg-Trp]] (cyclo(CGH[dF]RWCGH[dF]RW); disulfide 1-7): 0.01 nM, 154 and 0.07 nM.
The matching figures for `C[C@@H]1NC(=O)[C@@H]2CSSC[C@H](NC(=O)[C@H](Cc3ccc4ccccc4c3)NC(=O)[C@H](CCCNC(=N)N)NC(=O)[C@@H](Cc3ccccc3)NC(=O)[C@H](Cc3c[nH]cn3)NC1=O)C(=O)N[C@@H](C)C(=O)N[C@@H](CCCCN)C(=O)N[C@@H](CCCCN)C(=O)N[C@@H](CCCCN)C(=O)N[C@@H](Cc1c[nH]c3ccccc13)C(=O)N2` [Chem. 79, c[c[Cys-Ala-His-D-Phe-Arg-2-Nal- Cys]-Ala-Lys-Lys-Lys-Trp]] (cyclo([2Nal]CAKKKWCAH[dF]R); disulfide 2-8): 0.02 nM, 58 and 0.03 nM.
For the compound `C[C@@H]1NC(=O)[C@H]2NC(=O)[C@H](Cc3c[nH]c4ccccc34)NC(=O)[C@H](Cc3c[nH]cn3)NC(=O)[C@@H](Cc3ccccc3)NC(=O)[C@H](Cc3c[nH]cn3)NC(=O)[C@@H]3CCCN3C(=O)[C@H](CSSC2(C)C)NC(=O)[C@H](CCCNC(=N)N)NC(=O)[C@H](CCCCN)NC(=O)[C@H](CCCCN)NC(=O)[C@H](CCCCN)NC1=O` [Chem. 93, c[c[Cys-Pro-His-D-Phe-His-Trp-Pen]- Ala-Lys-Lys-Lys-Arg]] (cyclo(AKKKRCPH[dF]HW[Pen]); disulfide 6-12), the EC50 on human MC4R [1] (setting [3]) is 0.04 nM. The “MC1R/MC4R cAMP EC50 ratio” value at human MC4R [1] is recorded as 456. Also, the Ki at human MC4R [2] (setting [4]) stood at 0.03 nM.
Take `CC(=O)N[C@@H](C)C(=O)N[C@@H](Cc1c[nH]cn1)C(=O)N[C@H](Cc1ccccc1)C(=O)N[C@@H](CCCNC(=N)N)C(=O)N[C@@H](Cc1c[nH]c2ccccc12)C(=O)N[C@@H]1CCSSCCCNC(=O)[C@H](Cc2c[nH]c3ccccc23)NC(=O)[C@H](CCCNC(=N)N)NC(=O)[C@@H](Cc2ccccc2)NC(=O)[C@H](Cc2c[nH]cn2)NC(=O)[C@H](C)NC1=O` [Chem. 3, c[c[HCys-Ala-His-D-Phe-Arg-Trp- HCys]-Ala-His-D-Phe-Arg-Trp]] (Ac-AH[dF]RW[d(hCys)]AH[dF]RW; linker 6-C via X1): the EC50 on human MC4R [1] (setting [3]) turned out to be 0.26 nM. At human MC4R [1], the “MC1R/MC4R cAMP EC50 ratio” value came to 28. For the same compound, on human MC4R [2] (setting [4]), the Ki was 0.42 nM.
